From patent US4021481A, “Amido derivatives of 2,4,6-triiodobenzoic acids containing at least one N-hydroxyalkyl and at least two hydroxyl groups” (Nyegaard & Co. A/S, priority 1969, dated 1977)

Key:
[1] = test system: mice; assay: Intracerebral toxicity in mice (LD50); assay type: in vivo
Source text: (§1) As indicated above, the new non-ionic compounds according to the invention have shown markedly low levels of toxicity, especially in intracerebral tests. […] It will be seen that all the new compounds listed are very much better than the known compounds in the intracerebral test.
(§2) Intravenous and Intracerebral Toxicity
(§3) Most of the compounds were so inert that it was not physically possible to inject sufficient substance to kill 50% of the mice and in such cases only a minimum value can be given for the LD50.

[2] = Solubility in water; assay type: physicochemical; details: water, room temperature; read-out: Solubility in water at room temperature (class)
[3] = test system: mice; assay: Intravenous toxicity in mice (LD50); assay type: in vivo; details: concentration administered 300 mgI/ml
Source text: as §1, §2, §3

[4] = Osmolality of aqueous solution; assay type: physicochemical; details: 37° C.; 300 mg I/ml
Experimental: As indicated above, the compounds according to the invention are of low osmolality as compared to conventional ionic contrast agents and many of the compounds show even lower osmolality values than would have been expected. The observed osmolality in each case would be expected to be about 0.8 mol/kg but compounds 3, 33, 35, 44 and 11 identified in Table I have shown osmolality values of 0.47, 0.48, 0.61, 0.53 and 0.48 mol/kg respectively at 37° C. (300 mg I ml). The last two compounds in Table 2, which are ionic compounds shown for comparison, have osmolality values of about 1.6 mol/kg.

[5] = subarachnoideal space; in words; cited from earlier work
[6] = Viscosity; assay type: physicochemical; details: 20° C.; 300 mgI/ml
Source text: However, the preferred compounds listed above in relation to the myelographic field are also very useful in cardiovascular visualisation due to their extremely good tolerance.

[7] = 300 mgI/ml, dose 0.05 ml/20 g mouse
[8] = 300 mgI/ml, dose 0.10 ml/20 g mouse

With `CC(=O)Nc1c(I)c(C(=O)N(C)C[C@H](O)[C@@H](O)[C@H](O)[C@H](O)CO)c(I)c(N(C)C(C)=O)c1I` [Compound 3, N-(N-methyl-3,5-diacetamido-2,4,6-triiodobenzoyl)-N-methyl glucamine] the “Intracerebral LD50” value [1, 7] was over 750 mgI/kg, the solubility [2] was over 500 mg/mL and the “Intravenous LD50” value [3] was 6000 mgI/kg. For the same compound, the Osmolality [4] was 0.47 mol/kg.
For `CC(=O)Nc1c(I)c(C(=O)NC[C@H](O)[C@@H](O)[C@H](O)[C@H](O)CO)c(I)c(N(C)C(C)=O)c1I` [Compound 33, N-(N-methyl-3,5-diacetamido-2,4,6-triiodobenzoyl)-D-glucamine], the “Intracerebral LD50” value [1, 7] was over 750 mgI/kg, the “Intracerebral LD50” value [1, 8] was over 1500 mgI/kg and the solubility [2] was over 500 mg/mL. The “Intravenous LD50” value [3] was 14250 mgI/kg and the Osmolality [4] was 0.48 mol/kg.
In the case of `CC(=O)N(C)c1c(I)c(C(=O)N(C)C[C@H](O)[C@@H](O)[C@H](O)[C@H](O)CO)c(I)c(N(CCO)C(C)=O)c1I` [Compound 35, N-[3-N-methylacetamido-5-N-(β-hydroxyethyl)-acetamido-2,4,6-triiodobenzoyl]-N-methylglucamine], the “Intracerebral LD50” value [1, 7] was over 750 mgI/kg, the “Intracerebral LD50” value ([1]; 400 mgI/ml, dose 0.10 ml/20 g mouse) was over 2000 mgI/kg and the solubility [2] was over 500 mg/mL. The Osmolality [4] was 0.61 mol/kg.
In the case of `CC(=O)Nc1c(I)c(C(=O)N[C@H]2C(O)O[C@H](CO)[C@@H](O)[C@@H]2O)c(I)c(N(C)C(C)=O)c1I` (some centres unmarked) [Compound 11, N-(N-methyl-3,5-diacetamido-2,4,6-triiodobenzoyl)-glucosamine], the “Intracerebral LD50” value [1, 8] was over 1500 mgI/kg, the solubility [2] was over 500 mg/mL and the “Intravenous LD50” value [3] was 15000 mgI/kg. The Osmolality [4] was 0.48 mol/kg.
For `O=S(=O)(O)CI` [iodomethane sulphonate], the Absorption [5] is listed as “quite rapidly absorbed” and the Toxicity in use [5] is listed as “too toxic for cisternography, ventriculography and cervical or thoracic myelography”.
In the case of `CC(=O)Nc1c(I)c(C(=O)N(C)CC(O)CO)c(I)c(C(=O)N(C)CC(O)CO)c1I` (centres unmarked) [Compound 9, 3,5-Bis-[N-(2,3-dihydroxypropyl)-N-methylcarbomoyl]-2,4,6-triiodoacetanilide], the “Intracerebral LD50” value [1, 8] was “about 1500 mgI/kg”, the solubility [2] was over 500 mg/mL and the “Intravenous LD50” value [3] was 13500 mgI/kg. The Viscosity [6] was 7.1 cp.
